Results as given in patent publication US10383333B2, “Carbamate compound and use thereof” (SUMITOMO CHEMICAL COMPANY, LIMITED, priority 2015, dated 2019).

System: wheat rust fungus (Puccinia recondita)
Assay: Test Example 2: wheat rust, foliar spray before inoculation
Assay type: in vivo
Settings: 500 ppm foliar spray on wheat (Shirogane), inoculated 5 days after spraying, formulated per Formulation Example 6

COC(=O)Nc1ccccc1COc1ccc(-c2ccccn2)cc1 [methyl N-(2-{[4-(pyridine-2-yl)phenoxy)methyl}phenyl)carbamate]
area of the lesion relative to untreated wheat: ≥ 70%
